# Measurements as given in paper PMC6052345, “Functional Analysis of the Chemosensory Protein MsepCSP8 From the Oriental Armyworm Mythimna separata” (Frontiers in Physiology, 2018).
# Where two headings read alike, the source gives them in different places.
# Legend:
# MsepCSP8 = MsepCSP8 (Mythimna separata, UniProt A0A1V1WC03); experiment: Fluorescence competitive binding assay with 1-NPN as fluorescent probe; details: for IC50: displacement of 1-NPN; for Ki: calculated from IC50; for binding affinity to MsepCSP8 in words: discussion of Table 1, pH not stated
# Experimental: The expressed protein was obtained in soluble form in the supernatant, and purification was accomplished using a Ni affinity chromatography column (GE Healthcare, Uppsala, Sweden). Bound protein was eluted by digestion with recombinant bovine enterokinase at 26°C for 15 h to remove the His-tag. Expression and purification were verified by 15% sodium dodecyl sulfate-polyacrylamide gel electrophoresis (SDS-PAGE), and protein concentration was measured as described by [Cao et al. (2017)]. Dialysis of purified protein was carried out in 30 mM Tris-HCl buffer [Tris(hydroxymethyl)aminomethane] at pH 7.4 and pH 5.0 before fluorescence binding assays, and protein was stored at -80°C until use.
# Fluorescence competitive binding assays were performed to determine the binding affinity of MsepCSP8 for 56 ligands using N-phenyl-1-naphthylamine (1-NPN) as a fluorescent probe. Stock solutions of ligands were prepared in spectrophotometric-grade methanol. […] Mixtures of 1-NPN and protein were excited at 337 nm wavelength, and emission spectra were recorded from 360 to 600 nm using a fluorescence spectrophotometer (RF-5301PC Shimadzu, Kyoto, Japan). Binding of selected ligands with MsepCSP8 (1:1 protein:ligand stoichiometry) was evaluated using 1-NPN as a fluorescent probe, with the final concentration of the product ranging from 0 to 20 μM. […] Three independent measurements were made for all experiments. The binding affinity (Ki) of MsepCSP8 for all tested ligands was calculated based on IC50 values as follows:
# Ki=IC50/(1 + [1−NPN]/K1–NPN)
# where [1-NPN] is the free concentration of 1-NPN, and K1-NPN is the dissociation constant of the complex of MsepCSP8 and 1-NPN.
# Mythimna separata = experiment: Y-tube olfactometer bioassay (before RNAi); type: in vivo
# From the text: Mythimna separata behavioral responses were examined by olfactometer bioassays ([Cao et al., 2015]) performed in a glass Y-tube (base = 4.0 cm diameter by 25 cm length, arms = 3.0 cm diameter by 26 cm length) using 10 different volatile compounds (Sigma-Aldrich).
# Air entering the tube was passed through activated charcoal for filtration and humidified using deionised water. Filtered air was split between two chambers; one chamber containing liquid paraffin (used as control) and the other containing the test volatile. Each chamber was connected to one arm of the Y-tube. Airflow was kept constant at 6.0 l min^-1 throughout the experiment using an inline flow meter (Gilmont Instr., Barnant Co., Barrington, IL, United States). Orange light was used for this experiment. The whole experiment was conducted in a dark room, and the relative humidity and temperature were maintained at 70 ± 5% and 25 ± 1°C, respectively. A 10 μl of volatile compound was applied to 10 mm × 10 mm filter papers (Whatman No. 1) that was placed in the chamber connected to one arm of the Y-tube. A separate Y-tube was used for male and female moths.
# To perform bioassays, a 3-day-old moth, either male or female, was released in the base of the Y-tube. Each insect was given 10 min to respond to the treatment, and the number of moths showing attraction, repulsion or no response was counted. Approximately 30 min before onset of the trial, male and female adults were placed into separate glass tubes (50 ml) and covered with a cotton plug to avoid exposure to tested volatiles. In total, 60 adults (30 male and 30 female) were tested per volatile compound, and χ^2 tests were applied to evaluate the number of M. separata individuals attracted to or repelled by volatiles.
# MsepCSP8, sequence (A0A1V1WC03 entry or part of it): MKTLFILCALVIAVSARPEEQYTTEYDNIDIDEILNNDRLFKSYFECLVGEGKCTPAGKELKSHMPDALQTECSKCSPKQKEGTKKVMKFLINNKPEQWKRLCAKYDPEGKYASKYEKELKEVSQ
Compound,"IC50 (MsepCSP8; IC50, pH 5.0)","IC50 (MsepCSP8; IC50, pH 7.4)","Ki (MsepCSP8; Ki, pH 5.0)","Ki (MsepCSP8; Ki, pH 7.4)",further results
CCCCCCCCCC=O [Decanal],31 µM,20.4 µM,23.2 µM,14.3 µM,–
CCC/C=C/CO [Trans-2-hexen-1-ol],8.46 µM,23.8 µM,6.31 µM,16.7 µM,binding affinity to MsepCSP8 in words (MsepCSP8): bound strongly
CCOC(C)=O [Ethyl acetate],29.2 µM,67.3 µM,21.8 µM,47.2 µM,–
"C=C(C)C1CCC2(C)OC2C1 (single isomer, unassigned; (-)) [(–)-Limonene oxide]",–,–,–,–,"Ki (MsepCSP8; pH 5.0, read-out: Ki): 35 µM; IC50 (MsepCSP8; pH 5.0, read-out: IC50): 46.9 µM; Ki (MsepCSP8; pH 7.4, read-out: Ki): 12.3 µM; IC50 (MsepCSP8; pH 7.4, read-out: IC50): 17.5 µM"
CCCCCCCCCCCCCCCCCCCC [Eicosane],46.3 µM,48 µM,34.6 µM,33.7 µM,–
OC1CCCCC1 [Cyclohexanol],–,–,–,–,behavioral response in words (Mythimna separata; male and female moths): distinct preference
CC1=CC=C(C(C)C)CC1 [α-Terpinene],–,–,–,–,"behavioral response (attraction) of females (Mythimna separata; 3-day-old female moths, 10 μl volatile vs liquid paraffin): 70%; behavioral response (attraction) of males (Mythimna separata; 3-day-old male moths, 10 μl volatile vs liquid paraffin): 66%"
C=CC(C)(O)CCC=C(C)CCC=C(C)C (mixture of isomers) [Nerolidol],15.4 µM,15 µM,11.5 µM,10.5 µM,–
CCCCCCCCCCCCCCCC [Hexadecane],10.3 µM,14.8 µM,7.65 µM,10.4 µM,–
CCCCCCCCCCCCCCCCCCCCCCCCC [Pentacosane],11.2 µM,24.4 µM,8.36 µM,17.1 µM,–
C=C1CC[C@H]2O[C@]2(C)CC[C@@H]2[C@@H]1CC2(C)C [(–)-Caryophyllene oxide],10.3 µM,19.6 µM,7.67 µM,13.7 µM,–
C=C1CC[C@@H]2C[C@H]1C2(C)C [(R)-(+)-β-pinene],–,–,–,–,"binding affinity to MsepCSP8 in words (MsepCSP8): high binding affinities; Ki (MsepCSP8; pH 5.0, read-out: Ki): 19.7 µM; IC50 (MsepCSP8; pH 5.0, read-out: IC50): 26.4 µM; Ki (MsepCSP8; pH 7.4, read-out: Ki): 9.73 µM; IC50 (MsepCSP8; pH 7.4, read-out: IC50): 13.9 µM"
CCCCCCCCCCCC=O [Dodecyl aldehyde],–,–,–,–,"Ki (MsepCSP8; pH 5.0, read-out: Ki): 27.5 µM; IC50 (MsepCSP8; pH 5.0, read-out: IC50): 36.9 µM; Ki (MsepCSP8; pH 7.4, read-out: Ki): 17.3 µM; IC50 (MsepCSP8; pH 7.4, read-out: IC50): 24.6 µM"
CCCCCCCCCCCCCC [Tetradecane],23.8 µM,17.9 µM,17.8 µM,12.6 µM,–
CCCCCCCCCC(C)=O [2-Undecanone],22.3 µM,35.5 µM,16.6 µM,24.9 µM,–
(–)-Limonene,–,–,–,–,"Ki (MsepCSP8; pH 5.0, read-out: Ki): 11.2 µM; IC50 (MsepCSP8; pH 5.0, read-out: IC50): 15.1 µM; Ki (MsepCSP8; pH 7.4, read-out: Ki): 28.4 µM; IC50 (MsepCSP8; pH 7.4, read-out: IC50): 40.4 µM"
CC/C=C\CCOC(C)=O [Cis-3-hexenyl acetate],24.6 µM,21 µM,18.4 µM,14.8 µM,–
"CC1(C)CCC[C@@]2(C)[C@@H]3CC4C([C@@H]31)C42C (single isomer, unassigned; (+)) [(+)-Longicyclene]",–,–,–,–,"Ki (MsepCSP8; pH 5.0, read-out: Ki): 295 µM; IC50 (MsepCSP8; pH 5.0, read-out: IC50): 395 µM; Ki (MsepCSP8; pH 7.4, read-out: Ki): 28.2 µM; IC50 (MsepCSP8; pH 7.4, read-out: IC50): 40.1 µM"
CCC(O)CC [3-Pentanol],17.3 µM,16 µM,12.9 µM,11.3 µM,–
CCCCCC [Hexane],26.3 µM,9.69 µM,19.6 µM,6.8 µM,binding affinity to MsepCSP8 in words (MsepCSP8): bound highly
CCCCCC(C)O (stereo not drawn) [2-Heptanol],25.6 µM,23.8 µM,19.1 µM,16.7 µM,–
CC/C=C\CCO [Cis-3-hexen-1-ol],29.8 µM,21.4 µM,22.3 µM,15 µM,–
C=CC(=C)CCC=C(C)C [Myrcene],17.4 µM,16.6 µM,13 µM,11.6 µM,–
